From patent publication US6410594B1, “Substituted cyclopentane compounds useful as neuraminidase inhibitors” (Biocryst Pharmaceuticals, Inc., priority 1996, dated 2002)

Target: H1N9 Influenza Neuraminidase (Influenza A virus, UniProt P03472)
Assay: biochemical
Parameters: species or system influenza virus (H1N9 strain)
Conditions: 10 min at 37° C.; read-out: Inhibition of H1N9 Influenza Neuraminidase IC50

Chain of H1N9 Influenza Neuraminidase (P03472 83-470 limits assumed): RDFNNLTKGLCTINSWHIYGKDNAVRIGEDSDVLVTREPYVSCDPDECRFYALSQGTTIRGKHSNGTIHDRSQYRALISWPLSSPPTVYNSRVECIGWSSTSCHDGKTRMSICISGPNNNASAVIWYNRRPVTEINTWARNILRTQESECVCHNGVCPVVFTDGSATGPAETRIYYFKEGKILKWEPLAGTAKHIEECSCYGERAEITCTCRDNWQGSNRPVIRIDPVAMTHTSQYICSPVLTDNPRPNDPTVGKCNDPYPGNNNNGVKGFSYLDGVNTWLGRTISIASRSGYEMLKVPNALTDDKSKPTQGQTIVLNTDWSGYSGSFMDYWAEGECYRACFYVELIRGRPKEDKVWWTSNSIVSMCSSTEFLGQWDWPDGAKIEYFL

Row | Compound | IC50 [µM]
1 | CC(=O)NC(CO)[C@H]1CC(C(=O)O)C[C@@H]1NC(=N)N (single isomer, unassigned; isomer a) [Example 6, 4β-{[(Amino)(imino)methyl]amino}-3α-[(2-hydroxy-1-methylcarbonylamino)ethyl]-1-cyclo-pentancarboxylic acid (isomer A at C-6)] | 90
2 | CC(=O)NC(COC(=O)C(F)(F)F)[C@H]1C[C@](O)(C(=O)O)C[C@@H]1NC(=N)N (single isomer, unassigned; isomer a) [Example 16, c-3-{[(Amino)(imino)methyl]amino}-t-1-hydroxy-t-4-[(1-methylcarbonylamino)(2-trifluoromethyl-carbonyloxy)ethyl]cyclopentan-r-carboxylic acid trifluoroacetic acid (4:1) (isomer A at C-6)] | 70
3 | CC(=O)NC(CO)[C@H]1CC(C(=O)O)C[C@@H]1NC(=N)N (single isomer, unassigned; isomer b) [Example 7, Sodium 3β-{[(amino)(imino)methyl]amino}-4α-[(2-hydroxy)(1-methylcarbonylamino)ethyl]-cyclopentan-r-carboxylate:diethylether:hydrate (12:4:3), isomer B] | 3800
4 | CC(=O)NC(C(O)C(O)CO)[C@H]1CC(C(=O)O)C[C@@H]1NC(=N)N (single isomer, unassigned; isomer b) [Example 13, 3β-{[(Amino)(imino)methyl]amino}-4α-[(1-methylcarbonylamino)(2,3,4-trihydroxy)butyl]-cyclopentancarboxylic acid trifluoroacetic acid (1:2) (isomer B at C-1, isomer A at C-6, isomer B at C-7)] | 4.3
5 | CC(=O)NC(C(O)C(O)CO)[C@H]1CC(C(=O)O)C[C@@H]1NC(=N)N (single isomer, unassigned; isomer b) [Example 14, 3β-{[(Amino)(imino)methyl]amino}-4α-[(1-methylcarbonylamino)(2,3,4-trihydroxy)butyl]cyclo-pentancarboxylic acid trifluoroacetic acid (4:9) (isomer B at C-6, isomer A at C-1, C-7 and/or C-8)] | 40
6 | CC(=O)NC(C(O)C(O)CO)[C@H]1CC(C(=O)O)C[C@@H]1NC(=N)N (single isomer, unassigned; isomer b) [Example 15, 3β-{[(Amino)(imino)methyl]amino}-4α-[(1-methylcarbonylamino)(2,3,4-trihydroxy)butyl]cyclo-pentancarboxylic acid trifluoroacetic acid (5:13) (isomer B at C-6, isomer B at C-1, C-7 and/or C-8)] | 50
7 | CC(=O)NC(COC(=O)C(F)(F)F)[C@H]1C[C@](O)(C(=O)O)C[C@@H]1NC(=N)N (single isomer, unassigned; isomer b) [Example 17, c-3-{[(Amino)(imino)methyl]amino}-t-1-hydroxy-t-4-[(1-methylcarbonylamino)(2-trifluoromethyl-carbonyloxy)ethyl]cyclopentan-r-carboxylic acid trifluoroacetic acid (4:3) (isomer B at C-6)] | 2000
8 | CON(C)C(=O)C(NC(C)=O)[C@H]1C[C@](O)(C(=O)O)C[C@@H]1NC(=N)N (stereo partly drawn) [Example 19, c-3-{[(Amino)(imino)methyl]amino}-t-1-hydroxy-t-4{(methylcarbonylamino){[(methyl)-(methoxy)amino]carbonyl}methyl}cyclopentan-r-carboxylic acid trifluoroacetic acid (1:1)] | 16
9 | CON(C)CCC(=O)C(NC(C)=O)[C@H]1CC(C(=O)O)C[C@@H]1NC(=N)N (stereo partly drawn) [Example 20] | 8
10 | CCCN(CCC)C(=O)C(NC(C)=O)[C@H]1C[C@@](O)(C(=O)O)C[C@@H]1N=C(N)N (stereo partly drawn) [Example 23, t-3-{[(Amino)(imino)methyl]amino}-c-4-[(di-n-propylaminocarbonyl)(methylcarbonylamino)-methyl]-t-hydroxycyclpentan-r-carboxylic acid trifluoroacetic acid (4:5)] | 0.47

Test system: not given
Assay: not given
Conditions: not given

Row | Compound | melting point [°C]
11 | CC(=O)NC(CO)[C@H]1CC(C(=O)O)C[C@@H]1NC(=N)N (single isomer, unassigned; isomer a) [Example 6, 4β-{[(Amino)(imino)methyl]amino}-3α-[(2-hydroxy-1-methylcarbonylamino)ethyl]-1-cyclo-pentancarboxylic acid (isomer A at C-6)] | 121 to 122
12 | CON(C)C(=O)C(NC(C)=O)[C@H]1C[C@](O)(C(=O)O)C[C@@H]1NC(=N)N (stereo partly drawn) [Example 19, c-3-{[(Amino)(imino)methyl]amino}-t-1-hydroxy-t-4{(methylcarbonylamino){[(methyl)-(methoxy)amino]carbonyl}methyl}cyclopentan-r-carboxylic acid trifluoroacetic acid (1:1)] | 160 to 216
